Assay results: BindingDB's records for doi:10.1021/jm049237m (Wyeth Research, 2004)

Molecular target: Proto-oncogene tyrosine-protein kinase Src (Homo sapiens, UniProt P12931)
Assay: Homogeneous Time-resolved Fluorescence (HTRF) Assay
Settings: pH 7.5; 37 °C
Experimental: Kinase assays were performed using the europium/APC detection format (LANCE, Perkin Elmer). HTRF is based on the proximity of europium cryptate (donor fluorophore)-labeled antiphosphotyrosine and streptavidin labeled with APC(allophycocyanin), which have been brought together by a binding reaction. When the two entities come into close proximity and upon excitation, energy transfer occurs and APC re-emits at 665 nm.

Sequence of Proto-oncogene tyrosine-protein kinase Src (P12931 2-536 limits assumed): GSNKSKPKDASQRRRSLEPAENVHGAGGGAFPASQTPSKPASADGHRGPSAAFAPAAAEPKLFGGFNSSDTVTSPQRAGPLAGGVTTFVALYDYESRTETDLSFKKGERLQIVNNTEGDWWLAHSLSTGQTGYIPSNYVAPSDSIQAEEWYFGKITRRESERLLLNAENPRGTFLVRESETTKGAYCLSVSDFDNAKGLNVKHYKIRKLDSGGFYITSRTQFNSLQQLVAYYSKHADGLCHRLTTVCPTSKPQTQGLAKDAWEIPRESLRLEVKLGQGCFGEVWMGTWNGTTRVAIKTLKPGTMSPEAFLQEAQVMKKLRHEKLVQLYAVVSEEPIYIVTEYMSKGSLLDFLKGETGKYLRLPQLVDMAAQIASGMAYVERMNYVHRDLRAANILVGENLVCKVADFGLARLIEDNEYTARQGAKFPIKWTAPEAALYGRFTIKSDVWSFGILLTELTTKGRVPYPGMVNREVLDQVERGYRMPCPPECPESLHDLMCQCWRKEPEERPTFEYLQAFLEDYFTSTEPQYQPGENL

IC50: > 10 µM
SMILES: COc1cc(Nc2c(C#N)cnc3cc(-c4ccccc4CN4CCN(C)CC4)sc23)c(Cl)cc1Cl [7-[(2,4-dichloro-5-methoxyphenyl)amino]-2-{2-[(4-methylpiperazin-1-yl)methyl]phenyl}thieno[3,2-b]pyridine-6-carbonitrile]
